The text below walks through data of patent US9227949B2, “Heteroarylcarboxylic acid ester derivative” (AJINOMOTO CO., INC., priority 2012, dated 2016).

One experiment has as its system Zucker Fatty rats. In words: Evaluation of hypoglycemic action (blood glucose levels after oral gavage). Format: in vivo. The conditions noted are these: gavage 3 mg/kg, HCl salt form, 2 or 4 hours after dosing, free access to feed. How it is done:
Zucker Fatty rats (male, 11-19 week-old, Charles River Japan, Inc.) known to spontaneously develop hyperglycemia were randomly assigned to the groups (6 per group). The animals were individually housed in a polycarbonate cage and allowed to drink water freely from a watering bottle. The animals in the compound groups were gavaged with compound No. 10, 87, 19, or 69 at the dose of 3 mg/kg. These compounds were used as HCl salt form thereof, converted by the method according to Example 3, step 6 from TFA salt form thereof upon the necessity. The animals in the control group were only treated with the vehicle (0.5% methylcellulose). Animals were allowed free access to the feed (CRF-1, Oriental Yeast Co., Ltd.) during the experiment. An aspirate of the blood (6 μL) was collected from the tail vein on the time point of immediately before dosing (time 0) as well as 2, 4, and 8 hours after dosing. The blood glucose levels were determined with ACCU-CHEK Aviva (Roche Diagnostics K.K.).

In experiment [1] the target is recombinant human enteropeptidase (Homo sapiens (Human), UniProt P98073). The experiment in a line: Measurement of enteropeptidase inhibitory activity. The conditions noted are these: substrate Gly-Asp-Asp-Asp-Asp-Lys-β-Naphtylamide, Tris-HCl pH 8.0, Dixon plot. The format is biochemical. As to the method:
Using a 96 well plate (#3915, Costar), a test compound (25 μL), 400 mM Tris-HCl buffer (pH 8.0, 25 μL) and 0.5 mg/mL, fluorescence enzyme substrate (Gly-Asp-Asp-Asp-Asp-Lys-β-Naphtylamide, 25 μL) were mixed, and recombinant human enteropeptidase (R&D Systems, Inc., 25 μL) was added. Using a fluorescence plate reader fmax (Molecular Devices, Inc.), the reaction rate was measured from the time-course changes at excitation wavelength 320 nm and fluorescence wavelength 405 nm. The Ki value was calculated from the concentration of the test compound, reciprocal of reaction rate, and Km value of the enzyme substrate, and by using Dixon plot.

The target in experiment [2] is human trypsin (Homo sapiens, UniProt P07477). The experiment in a line: Measurement of trypsin inhibitory activity. Format: biochemical. As to conditions: substrate Boc-Phe-Ser-Arg-AMC, Tris-HCl pH 8.0, Dixon plot. As to the method:
(§1) Using a 96 well plate (#3915, Costar), a test compound (25 μL) was mixed with 20 μM fluorescence enzyme substrate (Boc-Phe-Ser-Arg-AMC, 50 μL) mixed with 200 mM Tris-HCl buffer (pH 8.0), and human trypsin (Sigma, 25 μL) was added. Using a fluorescence plate reader fmax (Molecular Devices, Inc.), the reaction rate was measured from the time-course changes at excitation wavelength 355 nm and fluorescence wavelength 460 nm. The Ki value was calculated from the concentration of the test compound, reciprocal of reaction rate, and Km value of the enzyme substrate, and by using Dixon plot.

The target in experiment [3] is human trypsin. The experiment in a line: Measurement of trypsin inhibitory activity. The format is biochemical. The conditions noted are these: substrate Boc-Phe-Ser-Arg-AMC, Tris-HCl pH 8.0, Dixon plot. How it is done: as §1

Chain of recombinant human enteropeptidase (P98073 whole entry): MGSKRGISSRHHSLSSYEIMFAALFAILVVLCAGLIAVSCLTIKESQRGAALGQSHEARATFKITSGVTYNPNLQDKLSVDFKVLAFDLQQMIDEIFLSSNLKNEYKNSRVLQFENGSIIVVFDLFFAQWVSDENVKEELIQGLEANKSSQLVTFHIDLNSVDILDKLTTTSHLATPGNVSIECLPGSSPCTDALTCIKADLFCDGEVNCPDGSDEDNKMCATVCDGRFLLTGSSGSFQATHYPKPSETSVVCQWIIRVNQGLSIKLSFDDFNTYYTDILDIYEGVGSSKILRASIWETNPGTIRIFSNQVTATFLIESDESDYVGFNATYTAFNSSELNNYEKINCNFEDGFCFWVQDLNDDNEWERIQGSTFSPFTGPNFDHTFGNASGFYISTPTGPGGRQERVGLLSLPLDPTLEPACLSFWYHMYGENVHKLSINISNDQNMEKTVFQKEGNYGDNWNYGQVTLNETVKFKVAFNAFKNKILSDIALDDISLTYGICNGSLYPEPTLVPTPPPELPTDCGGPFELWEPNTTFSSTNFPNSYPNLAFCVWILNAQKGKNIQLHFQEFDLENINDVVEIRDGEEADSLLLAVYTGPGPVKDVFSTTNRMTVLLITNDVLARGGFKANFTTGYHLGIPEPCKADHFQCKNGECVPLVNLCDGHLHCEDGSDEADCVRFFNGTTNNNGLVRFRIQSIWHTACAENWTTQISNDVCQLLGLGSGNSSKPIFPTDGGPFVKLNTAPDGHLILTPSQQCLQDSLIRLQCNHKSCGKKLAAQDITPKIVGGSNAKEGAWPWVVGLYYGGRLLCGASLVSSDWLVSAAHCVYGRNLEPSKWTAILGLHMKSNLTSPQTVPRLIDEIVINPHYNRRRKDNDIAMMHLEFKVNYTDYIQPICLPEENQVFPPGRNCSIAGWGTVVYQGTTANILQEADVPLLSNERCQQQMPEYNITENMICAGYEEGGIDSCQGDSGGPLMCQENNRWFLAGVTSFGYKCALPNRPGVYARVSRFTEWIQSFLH

For the molecule `CCCN(CC(=O)O)C(=O)C(C)(C)Cc1ccc(C(=O)Oc2ccc(C(=N)N)cc2F)s1.Cl` [Compound 10, N-{3-[5-(4-amidino-2-fluorophenoxycarbonyl)thiophen-2-yl]-2,2-dimethylpropionyl}-N-propylglycine hydrochloride], in the experiment with Zucker Fatty rats, the “blood glucose levels compared with vehicle group” value is recorded as “significantly decreased”.

For `CCC(CC)(Cc1ccc(C(=O)Oc2ccc(C(=N)N)cc2F)s1)C(=O)N[C@@H](CC(=O)O)C(=O)O.Cl` [Compound 19], the “blood glucose levels compared with vehicle group” value in the experiment on Zucker Fatty rats is listed as “significantly decreased”.

Consider `CC(C)(Cc1ccc(C(=O)Oc2ccc(C(=N)N)cc2F)s1)C(=O)N[C@@H](C(=O)O)c1ccc(O)cc1.O=C(O)C(F)(F)F` [Compound 69], for which the “blood glucose levels compared with vehicle group” value in the experiment on Zucker Fatty rats is on record as “significantly decreased”.

Broadly, the Ki is a dissociation constant, usually derived from enzyme kinetics or from competition with a known ligand. `CC(C)(Cc1ccc(C(=O)Oc2ccc(C(=N)N)cc2F)s1)C(=O)Nc1cc(O)cc(C(=O)O)c1` [Compound 74]: the figures for the Ki (in experiment [1]; on human trypsin [2]) were 0.58 nM and 0.18 nM, respectively.

As to `CCC(CC)(Cc1ccc(C(=O)Oc2ccc(C(=N)N)cc2F)s1)C(=O)Nc1ccc(O)c(C(=O)O)c1` [Compound 82], the values for the Ki (in experiment [1]; on human trypsin [2]) were 3.52 nM and 5.32 nM, respectively.

As to `CCC(CC)(Cc1ccc(C(=O)Oc2ccc(C(=N)N)cc2F)s1)C(=O)NCC(=O)O` [Compound 83], the Ki in experiment [1] stood at 0.72 nM; at human trypsin [3], 1.42 nM.

`CCC(CC)(Cc1ccc(C(=O)Oc2ccc(C(=N)N)cc2F)s1)C(=O)N[C@@H](CCC(=O)O)c1nnn[nH]1` [Compound 84]: the Ki in experiment [1] was 0.43 nM; on human trypsin [3], 3.27 nM.

With `CC(C)(Cc1ccc(C(=O)Oc2ccc(C(=N)N)cc2F)s1)C(=O)N[C@H]1CCC[C@@H](C(=O)O)C1` [Compound 85], the Ki in experiment [1] was found to be 0.81 nM; on human trypsin [2], 0.69 nM.

With `CCC(CC)(Cc1ccc(C(=O)Oc2ccc(C(=N)N)cc2F)s1)C(=O)N[C@@H](Cc1nn[nH]n1)C(=O)O` [Compound 86], the Ki in experiment [1] amounted to 0.24 nM; on human trypsin [2] it was 3.4 nM.

`CC(C)(Cc1ccc(C(=O)Oc2ccc(C(=N)N)cc2F)s1)C(=O)O.O=C(O)C(F)(F)F` [Compound 87]: the Ki in experiment [1] came out at 0.39 nM; on human trypsin [2], 1.3 nM. For the same molecule, the “blood glucose levels compared with vehicle group” value with Zucker Fatty rats is given as “significantly decreased”.

Take `CCC(CC)(Cc1ccc(C(=O)Oc2ccc(C(=N)N)cc2F)s1)C(=O)N1CC(C(=O)O)C1` [Compound 88]: the Ki was found to be 1 nM in experiment [1] and 2.87 nM at human trypsin [2].

With `CCC(CC)(Cc1ccc(C(=O)Oc2ccc(C(=N)N)cc2F)s1)C(=O)Nc1cccc(S(=O)(=O)O)c1` [Compound 89], the values for the Ki (in experiment [1]; at human trypsin [3]) were 0.84 nM and 1.17 nM, respectively.

Regarding `CCC(CC)(Cc1ccc(C(=O)Oc2ccc(C(=N)N)cc2F)s1)C(=O)Nc1ccc(C(=O)O)c(C(=O)O)c1` [Compound 90], the Ki in experiment [1] is 0.55 nM; at human trypsin [2], 1.7 nM.

Turning to `CC(C)(Cc1ccc(C(=O)Oc2ccc(C(=N)N)cc2F)s1)C(=O)N1CC[C@H](C(=O)O)C1` [Compound 91], the Ki in experiment [1] was determined as 0.9 nM; on human trypsin [2], 1.33 nM.

In the case of `CC(C)(Cc1ccc(C(=O)Oc2ccc(C(=N)N)cc2F)s1)C(=O)N[C@H](C(=O)O)c1ccc(O)cc1` [Compound 92], the inhibitory constant (Ki) in experiment [1] stood at 0.67 nM; on human trypsin [3], 0.96 nM.

As to `CC(C)(Cc1ccc(C(=O)Oc2ccc(C(=N)N)cc2F)s1)C(=O)N1C[C@H](O)C[C@H]1C(=O)O` [Compound 93], the Ki in experiment [1] came out at 0.3 nM; at human trypsin [3], 0.9 nM.

On to `CC(C)(Cc1ccc(C(=O)Oc2ccc(C(=N)N)cc2F)s1)C(=O)N[C@H]1CC=CC[C@H]1C(=O)O` [Compound 94], for which the Ki came to 1.3 nM in experiment [1] and 1.98 nM at human trypsin [3].
